Patent publication US11986493B2 (University of Pittsburgh—Of the Commonwealth System of …, priority 2013, dated 2024)
Entries after “also recorded” stand apart in the source; their conditions may differ.

Tested on: subjects with pulmonary hypertension (WHO group I PAH, WHO group III PH)
Assay: Right heart catheterization: right heart/pulmonary artery hemodynamics, thermodilution cardiac output, PVR and SVR after inhaled NO and nebulized nitrite
Format: in vivo, human
Procedure: A total of 6 subjects with a confirmed diagnosis of pulmonary hypertension and meeting all inclusion/exclusion criteria were enrolled in the study which entailed a single right heart catheterization. The study population consisted of subjects with WHO group I PAH (n=3) and subjects with WHO group III PH (n=3) which received the dose escalation paradigm:
During the study right heart/pulmonary artery hemodynamics were measured as well as noninvasive systemic blood pressure monitoring and simultaneous RV echocardiography. Subjects were tested for the changes in pulmonary vascular resistance (PVR) measured by right heart catheterization and using thermodilution cardiac output measurement at time zero, at times 15, 30 and 45 minutes after completion of each nebulization dose.
Following right heart catheterization, the patient was stabilized for 20 minutes. Baseline blood collections and hemodynamic measurements were performed, followed by treatment with 40 ppm inhaled NO gas for […] with repeat hemodynamic measurements performed.
After stopping inhaled NO gas, a single dose of sildenafil was given if patients were on background sildenafil therapy at previously prescribed doses. 45-minutes after sildenafil dose baseline hemodynamics were performed.
Subjects were monitored carefully during and after the study treatment.
The study was conducted at the 3rd FL Catheterization Laboratory at Presbyterian Hospital of the University of Pittsburgh Medical Center (UPMC). Baseline vasoreactivity was recorded after Inhaled NO at 40 ppm for […]. […] Subjects were instructed to breathe as calmly, and deeply as possible until no more mist was formed in the nebulizer chamber. Subjects were also instructed to hold their breath for approximately 10 seconds after inhalation to allow the study drug to reach deep into the lungs.

[1] = Patient 5, nitrite 45 mg inhaled, 60 min
[2] = Patient 5, nitrite 90 mg inhaled, 15 min
[3] = Patient 5, nitrite 90 mg inhaled, 30 min
[4] = Patient 5, nitrite 90 mg inhaled, 45 min
[5] = Patient 5, nitrite 90 mg inhaled, 60 min

Work on `O=NO` [nitrite, sodium nitrite] yielded a PCWP [1] of 7, a PVR [1] of 6.50 and a PVR/SVR [1] of 0.49. For the same molecule, the RA [1] was 3, the RVD [1] was 1 and the RVS [1] was 76. For the same molecule, the SVR [1] was 13.16, the TPR [1] was 8.07 and the mPAP [1] was 36.01. It also gave a CI [2] of 2.77, a CO [2] of 4.91 and a PAD [2] of 16. It also gave a PAS [2] of 76, a PCWP [2] of 2 and a PVR [2] of 6.93. It also gave a PVR/SVR [2] of 0.50, an RA [2] of 1 and an SVR [2] of 13.778. For the same molecule, the TPR [2] was 7.33, the mPAP [2] was 36.01 and the CI [3] was 2.81. The CO [3] was 4.97, the PAD [3] was 16 and the PAS [3] was 69. It also gave a PCWP [3] of 3, a PVR [3] of 6.17 and a PVR/SVR [3] of 0.47. The RA [3] was 1, the SVR [3] was 13.21 and the TPR [3] was 6.78. It also gave a mPAP [3] of 33.67, a CI [4] of 2.86 and a CO [4] of 5.07. The PAD [4] was 13, the PAS [4] was 70 and the PCWP [4] was 3. It also gave a PVR [4] of 5.72, a PVR/SVR [4] of 0.47 and an RA [4] of 1. It also gave an SVR [4] of 12.16, a TPR [4] of 6.31 and a mPAP [4] of 32.01. The CI [5] was 3.24, the CO [5] was 5.73 and the PAD [5] was 14. For the same molecule, the PAS [5] was 74, the PCWP [5] was 3 and the PVR [5] was 5.41. For the same molecule, the PVR/SVR [5] was 0.44, the RA [5] was 1 and the SVR [5] was 12.33. It also gave a TPR [5] of 5.93, a mPAP [5] of 34.01 and a CI (Patient 6, nitrite 45, 15 min) of 2.9849. The CO (Patient 6, nitrite 45, 15 min) was 5.94, the PAD (Patient 6, nitrite 45, 15 min) was 22 and the PAS (Patient 6, nitrite 45, 15 min) was 51. It also gave a PCWP (Patient 6, nitrite 45, 15 min) of 12, a PVR (Patient 6, nitrite 45, 15 min) of 3.3116 and a PVR/SVR (Patient 6, nitrite 45, 15 min) of 0.2878. The RA (Patient 6, nitrite 45, 15 min) was 7, the SVR (Patient 6, nitrite 45, 15 min) was 11.505 and the TPR (Patient 6, nitrite 45, 15 min) was 5.3318. The mPAP (Patient 6, nitrite 45, 15 min) was 31.671, the CI (Patient 6, nitrite 45, 30 min) was 2.8769 and the CO (Patient 6, nitrite 45, 30 min) was 47.25. For the same molecule, the PAD (Patient 6, nitrite 45, 30 min) was 20, the PAS (Patient 6, nitrite 45, 30 min) was 48 and the PCWP (Patient 6, nitrite 45, 30 min) was 10. For the same molecule, the PVR (Patient 6, nitrite 45, 30 min) was 3.3777, the PVR/SVR (Patient 6, nitrite 45, 30 min) was 0.2427 and the RA (Patient 6, nitrite 45, 30 min) was 6. The SVR (Patient 6, nitrite 45, 30 min) was 13.917, the TPR (Patient 6, nitrite 45, 30 min) was 5.1244 and the mPAP (Patient 6, nitrite 45, 30 min) was 29.337. The CI (Patient 6, nitrite 45, 45 min) was 3.0704, the CO (Patient 6, nitrite 45, 45 min) was 6.11 and the PAD (Patient 6, nitrite 45, 45 min) was 23. The PAS (Patient 6, nitrite 45, 45 min) was 52, the PCWP (Patient 6, nitrite 45, 45 min) was 9 and the PVR (Patient 6, nitrite 45, 45 min) was 3.8741. The PVR/SVR (Patient 6, nitrite 45, 45 min) was 0.2958, the RA (Patient 6, nitrite 45, 45 min) was 6 and the SVR (Patient 6, nitrite 45, 45 min) was 13.095. The TPR (Patient 6, nitrite 45, 45 min) was 5.3471, the mPAP (Patient 6, nitrite 45, 45 min) was 32.671 and the CI (Patient 6, nitrite 45, 60 min) was 2.9196. For the same molecule, the CO (Patient 6, nitrite 45, 60 min) was 5.81, the PAD (Patient 6, nitrite 45, 60 min) was 28 and the PAS (Patient 6, nitrite 45, 60 min) was 50. It also gave a PCWP (Patient 6, nitrite 45, 60 min) of 8, a PVR (Patient 6, nitrite 45, 60 min) of 4.7053 and a PVR/SVR (Patient 6, nitrite 45, 60 min) of 0.3417. It also gave an RA (Patient 6, nitrite 45, 60 min) of 6, an SVR (Patient 6, nitrite 45, 60 min) of 13.771 and a TPR (Patient 6, nitrite 45, 60 min) of 6.0822. The mPAP (Patient 6, nitrite 45, 60 min) was 35.338, the CI (Patient 6, nitrite 90, 15 min) was 3.3568 and the CO (Patient 6, nitrite 90, 15 min) was 6.68. It also gave a PAD (Patient 6, nitrite 90, 15 min) of 24, a PAS (Patient 6, nitrite 90, 15 min) of 52 and a PCWP (Patient 6, nitrite 90, 15 min) of 9. The PVR (Patient 6, nitrite 90, 15 min) was 3.6434, the PVR/SVR (Patient 6, nitrite 90, 15 min) was 0.3444 and the RA (Patient 6, nitrite 90, 15 min) was 6. The SVR (Patient 6, nitrite 90, 15 min) was 10.58, the TPR (Patient 6, nitrite 90, 15 min) was 4.9907 and the mPAP (Patient 6, nitrite 90, 15 min) was 33.338. It also gave a CI (Patient 6, nitrite 90, 30 min) of 3.6683, a CO (Patient 6, nitrite 90, 30 min) of 7.3 and a PAD (Patient 6, nitrite 90, 30 min) of 20. It also gave a PAS (Patient 6, nitrite 90, 30 min) of 48, a PCWP (Patient 6, nitrite 90, 30 min) of 6 and a PVR (Patient 6, nitrite 90, 30 min) of 3.1969. It also gave a PVR/SVR (Patient 6, nitrite 90, 30 min) of 0.3125, an RA (Patient 6, nitrite 90, 30 min) of 6 and an SVR (Patient 6, nitrite 90, 30 min) of 10.23. The TPR (Patient 6, nitrite 90, 30 min) was 4.0188, the mPAP (Patient 6, nitrite 90, 30 min) was 29.337 and the CI (Patient 6, nitrite 90, 45 min) was 3.7085. For the same molecule, the CO (Patient 6, nitrite 90, 45 min) was 7.38, the PAD (Patient 6, nitrite 90, 45 min) was 24 and the PAS (Patient 6, nitrite 90, 45 min) was 52. The PCWP (Patient 6, nitrite 90, 45 min) was 4, the PVR (Patient 6, nitrite 90, 45 min) was 3.9753 and the PVR/SVR (Patient 6, nitrite 90, 45 min) was 0.4074. The RA (Patient 6, nitrite 90, 45 min) was 6, the SVR (Patient 6, nitrite 90, 45 min) was 9.7574 and the TPR (Patient 6, nitrite 90, 45 min) was 4.5173. It also gave a mPAP (Patient 6, nitrite 90, 45 min) of 33.338, a CI (Patient 6, nitrite 90, 60 min) of 4.3417 and a CO (Patient 6, nitrite 90, 60 min) of 8.64. It also gave a PAD (Patient 6, nitrite 90, 60 min) of 28, a PAS (Patient 6, nitrite 90, 60 min) of 55 and a PCWP (Patient 6, nitrite 90, 60 min) of 4. The PVR (Patient 6, nitrite 90, 60 min) was 3.82, the PVR/SVR (Patient 6, nitrite 90, 60 min) was 0.4877 and the RA (Patient 6, nitrite 90, 60 min) was 8. The RVD (Patient 6, nitrite 90, 60 min) was 8, the RVS (Patient 6, nitrite 90, 60 min) was 47 and the SVR (Patient 6, nitrite 90, 60 min) was 7.8329. For the same molecule, the TPR (Patient 6, nitrite 90, 60 min) was 4.2829, the mPAP (Patient 6, nitrite 90, 60 min) was 37.005 and the “RA pressure (right atrial pressure)” value (patients with PAH (WHO Group 1 and Group 3; n=6), inhaled doses of 45 mg and 90 mg) was “dose-dependent reduction”. For the same molecule, the “PCWP (pulmonary capillary wedge pressure)” value (patients with PAH (WHO Group 1 and Group 3; n=6), inhaled doses of 45 mg and 90 mg, listed as inhaled nitrite) was “lowers; also recorded: dose-dependent reduction” and the “response of patients non-responsive to inhaled NO” value (some patients of the study) was “responsive”.
